Data reported in patent publication US7884082B2, “Combined therapeutical treatment of hyperproliferative diseases” (Aventis Pharma SA, priority 1995, dated 2011).

Experiments:
[1] = test system: H460 cells; assay: Sensitivity of transfected H460 cells to taxotere, cisplatin or camptothecin (colony count, Example 2); assay type: cell-based, human; details: for apoptotic effect induced by the GAP (170-702) construction on addition of the product: added to culture medium of human tumour cells transfected with GAP(170-702), at concentrations without effect on cell viability; for apoptotic effect induced by the transfer of the Grb3-3 gene on addition of the product: added to culture medium of human tumour cells transfected with Grb3-3, at concentrations without effect on cell viability; for effect of the product alone on cell viability: concentrations used in the combination, human tumour cells
From the text: H460 cells transfected as described in Example 1 are subjected during selection by geneticin to a treatment for several days at different concentrations of taxotere, of cisplatin or of camptothecin. The H460/Neo^R cells and which are resistant to the chemotherapeutic agents are quantified as described in Example 1. The sensitivity to taxotere (A), to cisplatin (B) or to camptothecin (C) of the H460 cells transfected with pSV2-Neo (●), pSV2-Neo+pSV2-GAP[170-702] (▴) or pSV2-Neo+pSV2-Grb3-3 (▾) is depicted relative to cells transfected identically but in the absence of treatment with the chemotherapeutic agents. The results of an experiment which is representative of quantification of the number of colony after the different treatments mentioned are summarized in FIG. 2.

[2] = test system: various tumour cell lines; details: various tumour cell lines in culture; cited from earlier work
[3] = test system: H460 cells; assay: Sensitivity of isolated H460 clones transfected with pcDNA3 or pcDNA3-p53WT to taxotere (Example 3); assay type: cell-based, human
From the text: H460 cells are transfected with cDNA coding for the wild-type p53 protein (p53^WT) placed in the plasmid pcDNA3 under the control of the CMV promoter. Plasmid pcDNA3 also contains the Neo gene placed under the control of the SV40 promoter. Cells transfected with pcDNA3 or pcDNA3-p53^WT are selected and isolated as described in Example 1. In the cells transfected with pcDNA3-p53^WT and which are resistant to geneticin, the presence of p53 is verified by western blotting using specific antibodies. FIG. 3 summarizes the results of a representative experiment in which are depicted, on the one hand the number of colonies obtained after pcDNA3 or pcDNA3-p53^WT transfection (A), and on the other hand the sensitivity of the clones isolated to a treatment with taxotere (B).

Row | SMILES | apoptotic effect induced by the GAP (170-702) construction on addition of the product [1] | apoptotic effect induced by the transfer of the Grb3-3 gene on addition of the product [1] | effect of the product alone on cell viability [1] | induction of apoptosis [2] | effect of taxotere on H460 clones expressing wild-type p53 ([3]; H460 clones resistant to the effect of p53, increasing doses of taxotere) | effect of taxotere on cells that do not express wild-type p53 ([3]; same concentrations as those killing p53-expressing clones)
1 | N.N.[Cl][Pt][Cl] [cisplatin] | very greatly increased | very greatly increased | without effect on cell viability | – | – | –
2 | CC(=O)O[C@H]1C(=O)[C@@]2(C)[C@H]([C@H](OC(=O)c3ccccc3)[C@]3(O)C[C@H](OC(=O)[C@H](O)[C@@H](NC(=O)c4ccccc4)c4ccccc4)C(C)=C1C3(C)C)[C@]1(OC(C)=O)CO[C@@H]1C[C@@H]2O [Taxol, 4,10β-diacetoxy-2α-benzoyloxy-5β,20-epoxy-1β,7β-dihydroxy-9-oxo-11-taxen-13α-yl (2R,3S)-3′-benzoylamino-3′-phenyl-2′-hydroxypropionate] | – | – | – | induces apoptosis | – | –
3 | CC[C@@]1(O)C(=O)OCc2c1cc1n(c2=O)Cc2cc3ccccc3nc2-1 [camptothecin] | very greatly increased | very greatly increased | without effect on cell viability | – | – | –
4 | CC(=O)O[C@@]12CO[C@@H]1C[C@H](O)[C@@]1(C)C(=O)[C@H](O)C3=C(C)[C@@H](OC(=O)[C@H](O)[C@@H](NC(=O)OC(C)(C)C)c4ccccc4)C[C@@](O)([C@@H](OC(=O)c4ccccc4)[C@H]21)C3(C)C [taxotere, 4-acetoxy-2α-benzoyloxy-5β,20-epoxy-1β,7β,10β-trihydroxy-9-oxo-11-taxen-13α-yl (2R,3S)-3′-t-butoxycarbonylamino-3′-phenyl-2′-hydroxypropionate] | very greatly increased | very greatly increased | without effect on cell viability | – | cells die | completely ineffective
